The values that follow come from ChEMBL document CHEMBL1158796, “Hectochlorin and morpholine derivatives from the Thai sea hare, Bursatella leachii” (2005).

Holding throughout (assay type): functional
Settings in all cases: read-out: ED50 (the source's name)

For one assay, the system named is NCI-H187. Nature of the assay: Cytotoxicity against human NCI-H187 cells by SRB assay. For orientation: Sulforhodamine B stains cellular protein and so reports cell mass.
For another assay, the system named is KB. Briefly: Cytotoxicity against human KB cells by SRB assay.
Assay [1] can be described thus: Cytotoxicity against human BC cells by SRB assay.

Consider `C[C@@H]1C(=O)O[C@@H](C(C)(C)O)c2nc(cs2)C(=O)OC(C)(C)[C@H](O)c2nc(cs2)C(=O)O[C@H]1CCCC(C)(Cl)Cl` [DEACETYLHECTOCHLORIN], for which the values for the EC50 (in the assay with NCI-H187; in the assay on KB; in assay [1]) were 320 nM, 310 nM and 1030 nM, respectively.

For the compound `CC(=O)O[C@@H]1c2nc(cs2)C(=O)O[C@@H](CCCC(C)(Cl)Cl)[C@H](C)C(=O)O[C@@H](C(C)(C)O)c2nc(cs2)C(=O)OC1(C)C` [HECTOCHLORIN], the EC50 worked out at 1200 nM in the assay on NCI-H187 and 860 nM in the assay with KB.
